Measured values reported in US20200016159A1, “N3-CYCLICALLY SUBSTITUTED THIENOURACILS AND USE THEREOF” (Bayer Aktiengesellschaft, priority 2016, published 2020).

Molecular target: T1, human adenosine A2b receptor (Homo sapiens, UniProt P29275)
T1 sequence (P29275 1-332): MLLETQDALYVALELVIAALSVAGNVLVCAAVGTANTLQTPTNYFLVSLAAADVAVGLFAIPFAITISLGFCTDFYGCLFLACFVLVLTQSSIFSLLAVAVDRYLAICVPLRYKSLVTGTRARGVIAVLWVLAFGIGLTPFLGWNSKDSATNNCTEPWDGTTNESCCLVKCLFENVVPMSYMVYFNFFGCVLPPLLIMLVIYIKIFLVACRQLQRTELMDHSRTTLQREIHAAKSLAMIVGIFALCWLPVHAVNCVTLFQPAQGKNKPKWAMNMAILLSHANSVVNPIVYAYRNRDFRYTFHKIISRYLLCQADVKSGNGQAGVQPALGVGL
Assay: Cellular in vitro reporter gene test for A2b receptor activity (antagonism of NECA)
Assay type: cell-based
Parameters: expressed in transfected cells; host or cells: CHO-K1 (Chinese hamster ovary) with CRE-luciferase reporter
Conditions: recombinant CHO-K1 cells, CRE-luciferase reporter, co-incubation with EC50 concentration of NECA, 3 hours
Method in brief: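 CHO-K1 cells expressing recombinant human A2b receptor plus a CRE-driven firefly luciferase reporter. Compounds co-incubated with NECA at its same-day EC50 concentration; luminescence read 3 hours after NECA addition. IC50 values, sometimes means of several determinations rounded to two significant figures.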

In order of falling IC50:
1. COCCn1c(=O)n([C@H]2C[C@@H](OC)C2)c(=O)c2c(C)c(Cn3nc[nH]c3=O)sc21 [Example 163, 3-(cis-3-Methoxycyclobutyl)-1-(2-methoxyethyl)-5-methyl-6-[(5-oxo-4,5-dihydro-1H-1,2,4-triazol-1-yl)methyl]thieno[2,3-d]pyrimidine-2,4(1H,3H)-dione]  1.2 µM
2. COCCn1c(=O)n(C2CC2OC)c(=O)c2c(C)c(CN3CCNC3=O)sc21 (single isomer, unassigned) [Example 308, 3-(2-Methoxycyclopropyl)-1-(2-methoxyethyl)-5-methyl-6-[(2-oxoimidazolidin-1-yl)methyl]thieno[2,3-d]pyrimidine-2,4(1H,3H)-dione]  0.87 µM
3. Cc1c(CN2CCNC(=O)C2=O)sc2c1c(=O)n(C1COC1)c(=O)n2CCC(F)(F)F [Example 133, 6-[(2,3-Dioxopiperazin-1-yl)methyl]-5-methyl-3-(oxetan-3-yl)-1-(3,3,3-trifluoropropyl)thieno[2,3-d]pyrimidine-2,4(1H,3H)-dione]  0.43 µM
4. Cc1c(Cn2nc[nH]c2=O)sc2c1c(=O)n(C1CC1)c(=O)n2CC1CCC1(F)F (single isomer, unassigned; enantiomer 2) [Example 203, 3-Cyclopropyl-1-[(2,2-difluorocyclobutyl)methyl]-5-methyl-6-[(5-oxo-4,5-dihydro-1H-1,2,4-triazol-1-yl)methyl]thieno[2,3-d]pyrimidine-2,4(1H,3H)-dione (enantiomer 2)]  0.16 µM
5. Cc1c(CN2CCNC2=O)sc2c1c(=O)n(C1CC1C)c(=O)n2CC1CCOC1 (single isomer, unassigned) [Example 292, 5-Methyl-3-(2-methylcyclopropyl)-6-[(2-oxoimidazolidin-1-yl)methyl]-1-(tetrahydrofuran-3-ylmethyl)thieno[2,3-d]pyrimidine-2,4(1H,3H)-dione]  0.15 µM
6. COCCn1c(=O)n([C@H]2C[C@H](OC)C2)c(=O)c2c(C)c(CN3CCNC3=NC#N)sc21 [Example 150, [1-{[3-(trans-3-Methoxycyclobutyl)-1-(2-methoxyethyl)-5-methyl-2,4-dioxo-1,2,3,4-tetrahydrothieno[2,3-d]pyrimidin-6-yl]methyl}imidazolidin-2-ylidene]cyanamide]  0.12 µM
7. COCCn1c(=O)n(C2CC2OC)c(=O)c2c(C)c(Cn3nc[nH]c3=O)sc21 (racemic) [Example 309, 3-(2-Methoxycyclopropyl)-1-(2-methoxyethyl)-5-methyl-6-[(5-oxo-4,5-dihydro-1H-1,2,4-triazol-1-yl)methyl]thieno[2,3-d]pyrimidine-2,4(1H,3H)-dione]  0.11 µM
8. Cc1c(CN2CCNC2=O)sc2c1c(=O)n(C1CC1)c(=O)n2CCOC(C)C [Example 33, 3-Cyclopropyl-1-(2-isopropoxyethyl)-5-methyl-6-[(2-oxoimidazolidin-1-yl)methyl]thieno[2,3-d]pyrimidine-2,4(1H,3H)-dione]  0.1 µM
9. COCCn1c(=O)n(C2CC2C)c(=O)c2c(C)c(CN3CCNC3=O)sc21 (single isomer, unassigned) [Example 260, 1-(2-Methoxyethyl)-5-methyl-3-(2-methylcyclopropyl)-6-[(2-oxoimidazolidin-1-yl)methyl]thieno[2,3-d]pyrimidine-2,4(1H,3H)-dione]  0.082 µM
10. Cc1c(CN2CCNC2=NC#N)sc2c1c(=O)n(C1COC1)c(=O)n2CCC(F)(F)F [Example 131, [1-{[5-Methyl-3-(oxetan-3-yl)-2,4-dioxo-1-(3,3,3-trifluoropropyl)-1,2,3,4-tetrahydrothieno[2,3-d]pyrimidin-6-yl]methyl}imidazolidin-2-ylidene]cyanamide]  0.068 µM
11. Cc1c(Cn2[nH]ccc2=O)sc2c1c(=O)n(C1CC1)c(=O)n2CCC(F)(F)F [Example 200, 3-Cyclopropyl-5-methyl-6-[(5-oxo-2,5-dihydro-H-pyrazol-1-yl)methyl]-1-(3,3,3-trifluoropropyl)thieno[2,3-d]pyrimidine-2,4(1H,3H)-dione]  0.055 µM
12. Cc1c(Cn2nc[nH]c2=O)sc2c1c(=O)n(C1CC1)c(=O)n2CCCC(F)(F)F [Example 201, 3-Cyclopropyl-5-methyl-6-[(5-oxo-4,5-dihydro-1H-1,2,4-triazol-1-yl)methyl]-1-(4,4,4-trifluorobutyl)thieno[2,3-d]pyrimidine-2,4(1H,3H)-dione]  0.053 µM
13. Cc1c(CN2CCNC2=O)sc2c1c(=O)n([C@H]1C[C@@H]1C)c(=O)n2CC1CCO1 (single isomer, unassigned) [Example 283]  0.025 µM
14. Cc1c(CN2CCNC2=O)sc2c1c(=O)n(C1CC1C)c(=O)n2CC(F)(F)F (single isomer, unassigned) [Example 238, 5-Methyl-3-(2-methylcyclopropyl)-6-[(2-oxoimidazolidin-1-yl)methyl]-1-(2,2,2-trifluoroethyl)thieno[2,3-d]pyrimidine-2,4(1H,3H)-dione]  0.024 µM
15. Cc1c(CN2CCNC2=O)sc2c1c(=O)n(C1CC1)c(=O)n2C [Example 1, 3-Cyclopropyl-1,5-dimethyl-6-[(2-oxoimidazolidin-1-yl)methyl]thieno[2,3-d]pyrimidine-2,4(1H,3H)-dione]  0.02 µM
16. Cc1c(CN2CCNC2=NC#N)sc2c1c(=O)n(C1CC1C)c(=O)n2CCOC(F)(F)F (racemic) [Example 264, [1-({5-Methyl-3-(2-methylcyclopropyl)-2,4-dioxo-1-[2-(trifluoromethoxy)ethyl]-1,2,3,4-tetrahydrothieno[2,3-d]pyrimidin-6-yl}methyl)imidazolidin-2-ylidene]cyanamide]  0.016 µM
17. Cc1c(CN2CCNC2=S)sc2c1c(=O)n(C1CC1)c(=O)n2CC1CCCO1 (racemic) [Example 40, 3-Cyclopropyl-5-methyl-1-(tetrahydrofuran-2-ylmethyl)-6-[(2-thioxoimidazolidin-1-yl)methyl]thieno[2,3-d]pyrimidine-2,4(1H,3H)-dione]  0.015 µM
18. Cc1c(Cn2[nH]ccc2=O)sc2c1c(=O)n(C1CCC1)c(=O)n2CCC(F)(F)F [Example 312, 3-Cyclobutyl-5-methyl-6-[(5-oxo-2,5-dihydro-1H-pyrazol-1-yl)methyl]-1-(3,3,3-trifluoropropyl)thieno[2,3-d]pyrimidine-2,4(1H,3H)-dione]  0.015 µM
19. Cc1c(CN2CCNC2=O)sc2c1c(=O)n(C1CC1C)c(=O)n2CC1CC(F)(F)C1 (single isomer, unassigned) [Example 254, 1-[(3,3-Difluorocyclobutyl)methyl]-5-methyl-3-(2-methylcyclopropyl)-6-[(2-oxoimidazolidin-1-yl)methyl]thieno[2,3-d]pyrimidine-2,4(1H,3H)-dione]  0.0072 µM
20. Cc1c(CN2CCNC2=O)sc2c1c(=O)n(C1CC1C)c(=O)n2CCC(F)(F)F (single isomer, unassigned) [Example 241, 5-Methyl-3-(2-methylcyclopropyl)-6-[(2-oxoimidazolidin-1-yl)methyl]-1-(3,3,3-trifluoropropyl)thieno[2,3-d]pyrimidine-2,4(1H,3H)-dione]  0.0071 µM
21. Cc1c(CN2CCNC2=O)sc2c1c(=O)n(C1CC(C)(C)C1)c(=O)n2CCC(F)(F)F [Example 164, 3-(3,3-Dimethylcyclobutyl)-5-methyl-6-[(2-oxoimidazolidin-1-yl)methyl]-1-(3,3,3-trifluoropropyl)thieno[2,3-d]pyrimidine-2,4(1H,3H)-dione]  0.0046 µM
22. COCCn1c(=O)n(C2CC2C)c(=O)c2c(C)c(CN3CCNC3=O)sc21 (single isomer, unassigned) [Example 259, 1-(2-Methoxyethyl)-5-methyl-3-(2-methylcyclopropyl)-6-[(2-oxoimidazolidin-1-yl)methyl]thieno[2,3-d]pyrimidine-2,4(1H,3H)-dione]  0.0041 µM
23. Cc1c(CN2CCNC2=O)sc2c1c(=O)n(C1(C)CC1)c(=O)n2CCC(F)(F)F [Example 56, 5-Methyl-3-(1-methylcyclopropyl)-6-[(2-oxoimidazolidin-1-yl)methyl]-1-(3,3,3-trifluoropropyl)thieno[2,3-d]pyrimidine-2,4(1H,3H)-dione]  0.0036 µM
24. Cc1c(CN2CCNC2=O)sc2c1c(=O)n(C1(C)CC1)c(=O)n2CCOC(F)(F)F [Example 75, 5-Methyl-3-(1-methylcyclopropyl)-6-[(2-oxoimidazolidin-1-yl)methyl]-1-[2-(trifluormethoxy)ethyl]thieno[2,3-d]pyrimidine-2,4(1H,3H)-dione]  0.0033 µM
25. Cc1c(CN2CCNC2=O)sc2c1c(=O)n(C1CC1C)c(=O)n2CCSC(F)(F)F (single isomer, unassigned) [Example 281, 5-Methyl-3-(2-methylcyclopropyl)-6-[(2-oxoimidazolidin-1-yl)methyl]-1-{2-[(trifluoromethyl)sulfanyl]ethyl}thieno[2,3-d]pyrimidine-2,4(1H,3H)-dione]  0.0021 µM
26. Cc1c(CN2CCNC2=NC#N)sc2c1c(=O)n(C1CC1C)c(=O)n2CCOC(F)(F)F (single isomer, unassigned) [Example 266, [1-({5-Methyl-3-(2-methylcyclopropyl)-2,4-dioxo-1-[2-(trifluoromethoxy)ethyl]-1,2,3,4-tetrahydrothieno[2,3-d]pyrimidin-6-yl}methyl)imidazolidin-2-ylidene]cyanamide]  0.00096 µM
